Data on three molecules can be found in patent US9133155B2, “Antibacterial agents: high-potency myxopyronin derivatives” (Rutgers, The State University of New Jersey, priority 2010, dated 2015).

Values after ≈ are worked out from the molar mass of the structure shown. Where two headings read alike, the source gives them in different places.

For data set [1], the target named is E. coli RNA polymerase σ^70 holoenzyme (Escherichia coli, UniProt P0A8T7+P0A8V2). Briefly: Inhibition of Escherichia coli RNA polymerase (fluorescence-detected). It is filed as biochemical. To be noted: read-out: IC50 E. coli RNAP. The procedure:
(§1) Fluorescence-detected RNA polymerase assays with E. coli RNA polymerase were performed by a modification of the procedure of Kuhlman et al., 2004 [Kuhlman, P., Duff, H. & Galant, A. (2004) A fluorescence-based assay for multisubunit DNA-dependent RNA polymerases. Anal. Biochem. 324, 183-190]. Reaction mixtures contained (20 μl): 0-100 nM test compound, 75 nM E. coli RNA polymerase σ^70 holoenzyme, 20 nM 384 bp DNA fragment containing the bacteriophage T4 N25 promoter, 100 μM ATP, 100 μM GTP, 100 μM UTP, 100 μM CTP, 50 mM Tris-HCl, pH 8.0, 100 mM KCl, 10 mM MgCl2, 1 mM DTT, 10 μg/ml bovine serum albumin, and 5.5% glycerol. Reaction components other than DNA and NTPs were pre-incubated for 10 min at 37° C. Reactions were carried out by addition of DNA and incubation for 5 min at 37° C., followed by addition of NTPs and incubation for 60 min at 37° C. DNA was removed by addition of 1 μl 5 mM CaCl2 and 2 U DNaseI (Ambion, Inc.), followed by incubation for 90 min at 37° C. RNA was quantified by addition of 100 μl RiboGreen RNA Quantitation Reagent (Invitrogen, Inc.; 1:500 dilution in Tris-HCl, pH 8.0, 1 mM EDTA), followed by incubation for 10 min at 25° C., followed by measurement of fluorescence intensity [excitation wavelength=485 nm and emission wavelength=535 nm; QuantaMaster QM1 spectrofluorometer (PTI, Inc.)].

In data set [2] the target is M. tuberculosis RNA polymerase (Mycobacterium tuberculosis, UniProt P9WGY7+P9WGY9). Briefly: Inhibition of Mycobacterium tuberculosis RNA polymerase (fluorescence-detected). It counts as biochemical. On the procedure: as §1
Fluorescence-detected RNA polymerase assays with M. tuberculosis RNA polymerase were performed as in Example 17.1, using reaction mixtures containing (20 μl): 0-100 nM test compound, 75 nM M. tuberculosis RNA polymerase core enzyme, 300 nM M. tuberculosis σ^A, 20 nM 384 bp DNA fragment containing the bacteriophage […] N25 promoter, 100 μM ATP, 100 μM GTP, 100 μM UTP, 100 μM CTP, 40 mM Tris-HCl, pH 8.0, 80 mM NaCl, 5 mM MgCl2, 2.5 mM DTT, and 12.7% glycerol.

For the next data set, the target named is S. aureus RNA polymerase (Staphylococcus aureus, UniProt P47768+Q2G0N5). Briefly: Inhibition of Staphylococcus aureus RNA polymerase (fluorescence-detected). It counts as biochemical.
Data set [3] has as its system Acinetobacter baumannii ATCC 19606. Briefly: Inhibition of bacterial growth in culture (MIC, spiral gradient endpoint). It counts as cell-based. To be noted: for MIC: Acinetobacter baumannii, ATCC19606, Mueller-Hinton II agar, 16 h at 37° C. An excerpt: (§2) Minimum inhibitory concentrations (MICs) for Staphylococcus aureus ATCC 12600, Enterococcus faecalis ATCC 19433, Acinetobacter baumannii ATCC 19606, and Escherichia coli D21f2tolC were quantified using spiral gradient endpoint assays, essentially as described [Wallace, A. and Corkill, J. (1989) Application of the spiral plating method to study antimicrobial action. J. Microbiol. Meths. […] Int. J. Exp. Clin. Chemother. 3, 31-38; Schalkowsky S. (1994) Measures of susceptibility from a spiral gradient of drug concentrations. Adv. Exp. Med. Biol. 349, 107-120]. Assays employed exponential-gradient plates containing 150 mm×4 mm Mueller-Hinton II cation-adjusted agar and 0.4-100 μg/ml of test compound. Plates were prepared using an Autoplate 4000 spiral plater (Spiral Biotech, Inc.). Saturated overnight cultures were swabbed radially onto plates, and plates were incubated for 16 h at 37° C. For each culture, the streak length was measured using a clear plastic template (Spiral Biotech, Inc.), the test-compound concentration at the streak endpoint was calculated using the program SGE (Spiral Biotech, Inc.), and the MIC was defined as the calculated test-compound concentration at the streak endpoint.

Data set [4] concerns Enterococcus faecalis ATCC 19433. The data set is described as above. It counts as cell-based. The conditions noted are these: for MIC: Enterococcus faecalis, ATCC19433, Mueller-Hinton II agar, 16 h at 37° C., read-out: MIC E. faecalis 19433.
Text: as §2

Data set [5] deals with Escherichia coli D21f2tolC. Described as above. It counts as cell-based. The conditions noted are these: 16 h, read-out: MIC E. coli D21f2tolC.
Text: as §2

The test system of data set [6] is Staphylococcus aureus ATCC 12600. The data set is described as above. It counts as cell-based. To be noted: for MIC: Staphylococcus aureus, ATCC12600, Mueller-Hinton II agar, 16 h at 37° C., read-out: MIC S. aureus 12600; for inhibition of Staphylococcus aureus compared with Myx B and 7-desmethyl-Myx B: summary of Table 3.
Text: as §2

Another data set relates to Staphylococcus aureus. Briefly: Antibacterial efficacy in mouse model of Staphylococcus aureus systemic infection (peritonitis model). It is filed as in vivo, Swiss Webster mice. The conditions noted are these: for effect on survival in a mouse model of Staphylococcus aureus infection (in words): summary of Tables 4a-4c. The procedure: (§3) Female Swiss Webster mice were experimentally infected by intraperitoneal administration of 5×10^7 colony forming units of Staphylococcus aureus in 10% hog gastric mucin. Test compounds (2-3 mg/ml in vehicle [9-19% dimethyacetamide/8-16% Cremophor EL in water, v/v]), positive controls (2 mg/ml vancomycin in vehicle), and negative controls (vehicle only and saline only), were administered by intravenous injection into a tail vein 1 h and 5 h post-infection (200 μl per injection). Survival was monitored for 12 h post-infection, or for 24, 48, and 72 h post-infection. At the end of the monitoring period, surviving animals were euthanized.

Data set [7] is described as follows: Tolerability upon intravenous injection (peritonitis model study). The conditions noted are these: daily total doses of at least 30 mg/kg; vehicles containing 9% to 19% dimethylacetamide and 8% to 16% Cremophor EL. It is filed as in vivo, Swiss Webster mice. The procedure: as §3
Where [8] appears, read: Table 4c, total dose 50 mg/kg iv, vehicle 9% dimethylacetamide/8% Cremophor EL/83% water.
Where [9] appears, read: read-out: IC50 M. tuberculosis RNAP.
Where [10] appears, read: Table 4a, total dose 30 mg/kg iv, 1 h and 5 h post-infection, vehicle 19% dimethylacetamide/8% Cremophor EL/73% water.

Chain of M. tuberculosis RNA polymerase (P9WGY5 whole entry, the tested form may be a part): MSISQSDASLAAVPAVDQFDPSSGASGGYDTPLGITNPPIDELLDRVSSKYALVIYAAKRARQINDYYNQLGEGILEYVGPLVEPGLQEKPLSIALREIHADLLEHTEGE
Chain of M. tuberculosis RNA polymerase (P9WGZ1 whole entry, further chain, the tested form may be a part): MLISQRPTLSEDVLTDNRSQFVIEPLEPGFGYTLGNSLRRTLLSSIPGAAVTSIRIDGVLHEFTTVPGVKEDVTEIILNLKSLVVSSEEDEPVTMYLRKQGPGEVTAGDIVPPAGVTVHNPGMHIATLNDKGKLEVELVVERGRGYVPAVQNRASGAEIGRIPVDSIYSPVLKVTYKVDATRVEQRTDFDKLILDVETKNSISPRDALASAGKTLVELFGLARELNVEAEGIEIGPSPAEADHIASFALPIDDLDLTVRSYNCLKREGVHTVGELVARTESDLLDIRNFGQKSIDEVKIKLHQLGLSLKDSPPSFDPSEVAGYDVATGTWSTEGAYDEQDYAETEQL
Chain of M. tuberculosis RNA polymerase (P9WGY9 whole entry, the tested form may be a part): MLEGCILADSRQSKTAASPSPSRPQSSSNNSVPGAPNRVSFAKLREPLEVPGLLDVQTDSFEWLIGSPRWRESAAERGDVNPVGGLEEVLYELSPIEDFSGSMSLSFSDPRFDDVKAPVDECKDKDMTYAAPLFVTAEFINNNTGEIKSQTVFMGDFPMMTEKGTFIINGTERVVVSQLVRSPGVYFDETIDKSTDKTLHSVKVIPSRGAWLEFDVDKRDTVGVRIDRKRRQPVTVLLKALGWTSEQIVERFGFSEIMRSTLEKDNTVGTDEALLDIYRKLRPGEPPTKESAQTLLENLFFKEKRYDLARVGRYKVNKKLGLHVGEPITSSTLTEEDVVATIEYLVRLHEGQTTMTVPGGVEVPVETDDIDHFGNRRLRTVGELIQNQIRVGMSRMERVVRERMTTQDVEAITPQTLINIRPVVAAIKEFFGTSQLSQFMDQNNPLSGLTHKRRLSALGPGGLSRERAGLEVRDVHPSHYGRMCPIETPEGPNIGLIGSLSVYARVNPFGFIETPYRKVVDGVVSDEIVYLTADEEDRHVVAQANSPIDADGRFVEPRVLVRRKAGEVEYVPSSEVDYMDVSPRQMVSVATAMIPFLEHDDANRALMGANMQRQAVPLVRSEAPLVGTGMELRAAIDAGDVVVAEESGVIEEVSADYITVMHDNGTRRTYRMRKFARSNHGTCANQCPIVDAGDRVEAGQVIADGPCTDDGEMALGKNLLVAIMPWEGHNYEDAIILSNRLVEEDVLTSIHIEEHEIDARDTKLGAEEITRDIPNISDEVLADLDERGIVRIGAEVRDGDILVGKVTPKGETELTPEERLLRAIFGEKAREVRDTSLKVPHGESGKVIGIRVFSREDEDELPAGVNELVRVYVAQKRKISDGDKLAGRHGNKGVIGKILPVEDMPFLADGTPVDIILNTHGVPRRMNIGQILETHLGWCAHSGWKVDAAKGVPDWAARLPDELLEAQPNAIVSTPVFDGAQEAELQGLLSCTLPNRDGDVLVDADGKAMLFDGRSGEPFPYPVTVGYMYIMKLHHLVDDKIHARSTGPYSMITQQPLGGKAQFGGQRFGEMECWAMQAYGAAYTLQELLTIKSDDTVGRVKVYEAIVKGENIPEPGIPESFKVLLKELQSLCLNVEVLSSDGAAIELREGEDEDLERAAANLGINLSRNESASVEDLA
Chain of M. tuberculosis RNA polymerase (P9WGY7 whole entry, the tested form may be a part): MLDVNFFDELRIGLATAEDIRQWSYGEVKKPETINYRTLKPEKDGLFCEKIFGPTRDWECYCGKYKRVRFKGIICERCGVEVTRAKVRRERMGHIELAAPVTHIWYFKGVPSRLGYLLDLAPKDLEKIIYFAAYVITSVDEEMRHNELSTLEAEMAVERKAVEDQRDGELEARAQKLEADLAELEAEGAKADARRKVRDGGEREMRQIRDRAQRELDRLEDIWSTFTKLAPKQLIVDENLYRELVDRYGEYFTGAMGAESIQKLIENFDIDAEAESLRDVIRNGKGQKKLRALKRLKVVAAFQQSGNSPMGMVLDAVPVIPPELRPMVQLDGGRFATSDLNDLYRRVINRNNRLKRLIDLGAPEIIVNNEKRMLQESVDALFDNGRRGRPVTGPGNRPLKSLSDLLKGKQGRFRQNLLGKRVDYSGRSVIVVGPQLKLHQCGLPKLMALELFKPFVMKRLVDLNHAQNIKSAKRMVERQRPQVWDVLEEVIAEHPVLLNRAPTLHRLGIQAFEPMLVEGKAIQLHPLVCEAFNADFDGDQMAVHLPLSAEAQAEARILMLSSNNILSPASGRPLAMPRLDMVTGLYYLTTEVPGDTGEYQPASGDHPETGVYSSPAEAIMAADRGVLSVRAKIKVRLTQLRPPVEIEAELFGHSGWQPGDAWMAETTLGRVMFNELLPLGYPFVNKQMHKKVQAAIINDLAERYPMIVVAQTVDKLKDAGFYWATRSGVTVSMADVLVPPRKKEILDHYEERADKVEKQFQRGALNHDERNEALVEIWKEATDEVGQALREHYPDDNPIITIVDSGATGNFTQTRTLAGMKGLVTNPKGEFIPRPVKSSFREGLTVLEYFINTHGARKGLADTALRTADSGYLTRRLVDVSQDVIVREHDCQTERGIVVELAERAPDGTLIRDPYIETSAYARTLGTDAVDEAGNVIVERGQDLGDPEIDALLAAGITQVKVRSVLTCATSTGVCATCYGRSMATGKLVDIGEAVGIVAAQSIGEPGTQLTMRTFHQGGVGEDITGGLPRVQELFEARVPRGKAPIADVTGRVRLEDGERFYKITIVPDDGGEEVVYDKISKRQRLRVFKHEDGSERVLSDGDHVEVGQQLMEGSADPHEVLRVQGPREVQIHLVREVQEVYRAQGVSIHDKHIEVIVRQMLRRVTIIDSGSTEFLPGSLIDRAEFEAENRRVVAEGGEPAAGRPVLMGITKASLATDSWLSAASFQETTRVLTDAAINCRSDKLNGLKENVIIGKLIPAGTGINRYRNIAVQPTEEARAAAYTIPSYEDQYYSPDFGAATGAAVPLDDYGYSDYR
Chain of M. tuberculosis RNA polymerase (P9WGI1 whole entry, further chain, the tested form may be a part): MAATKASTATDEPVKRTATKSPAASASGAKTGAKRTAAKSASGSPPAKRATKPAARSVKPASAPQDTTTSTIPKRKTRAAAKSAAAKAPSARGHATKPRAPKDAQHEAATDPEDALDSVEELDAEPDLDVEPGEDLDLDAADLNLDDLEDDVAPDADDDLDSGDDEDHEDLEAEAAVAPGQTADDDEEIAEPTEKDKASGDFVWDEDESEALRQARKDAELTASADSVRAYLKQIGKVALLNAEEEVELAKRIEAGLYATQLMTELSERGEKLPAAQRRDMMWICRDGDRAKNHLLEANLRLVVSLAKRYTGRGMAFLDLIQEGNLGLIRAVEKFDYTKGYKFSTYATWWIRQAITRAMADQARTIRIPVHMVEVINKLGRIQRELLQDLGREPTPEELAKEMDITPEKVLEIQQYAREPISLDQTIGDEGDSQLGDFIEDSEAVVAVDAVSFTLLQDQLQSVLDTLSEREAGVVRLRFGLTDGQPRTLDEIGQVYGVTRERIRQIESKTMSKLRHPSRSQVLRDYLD

For `CCCC/C(C)=C/C=C(\C)C(=O)c1c(O)cc(C(C)CC/C=C/NC(=O)OC)oc1=O` (stereo not shown) [Myx B, Methyl ((E)-5-(3-((2E,4E)-2,5-dimethylnona-2,4-dienoyl)-4-hydroxy-2-oxo-2H-pyran-6-yl)hex-1-en-1-yl)carbamate, reference compound], the values for the IC50 (in data set [1]; in data set [2]; against S. aureus RNA polymerase) were 13 nM, 130 nM and 66 nM, respectively. Also, the MIC is above 40 µg/mL in data set [3], 13 µg/mL (≈ 30.1 µM) in [4], 0.098 µg/mL (≈ 0.227 µM) in [5] and 0.78 µg/mL (≈ 1.81 µM) in [6]. Also, the “inhibition of Acinetobacter baumannii (in words)” value in data set [3] (summary of Table 3) is “not detectably inhibited”. The molecule further came in with a 12-hour survival in the data set with Staphylococcus aureus (Table 4b, total dose 50 mg/kg iv, vehicle 19% dimethylacetamide/16% Cremophor EL/73% water) of 50%. Moreover, the 24-hour survival in the data set with Staphylococcus aureus (setting [8]) is 75%. The molecule further gave a 48-hour survival in the data set with Staphylococcus aureus (setting [8]) of 50%. The same molecule showed a 72-hour survival in the data set on Staphylococcus aureus (setting [8]) of 50%. Also, the “effect on survival in a mouse model of Staphylococcus aureus infection (in words)” value (from here on “effect on survival in a mouse model”) in the data set on Staphylococcus aureus is “increase survival”. Further, the “acute toxicity upon intravenous injection” value in [7] is recorded as “tolerated without acute toxicity”.

As to `CCCCC/C(C)=C/C=C(\C)C(=O)c1c(O)cc(CCC/C=C/NC(=O)OC)oc1=O` [compound 5, Methyl ((E)-5-(3-((2E,4E)-2,5-dimethyldeca-2,4-dienoyl)-4-hydroxy-2-oxo-2H-pyran-6-yl)pent-1-en-1-yl)carbamate], the results for the IC50 (in data set [1]; in data set [2] (setting [9]); on S. aureus RNA polymerase (read-out: IC50 S. aureus RNAP)) were 3.9 nM, 32 nM and 15 nM, respectively. In addition, the minimum inhibitory concentration (MIC) in data set [3] turned out to be 19 µg/mL (≈ 44 µM); in [4], 12 µg/mL (≈ 27.8 µM); in data set [5] it was 0.076 µg/mL (≈ 0.176 µM); in data set [6] it was 0.44 µg/mL (≈ 1.02 µM). In addition, in data set [4] (summary of Table 3), the “inhibition of Enterococcus faecalis compared with Myx B and 7-desmethyl-Myx B” value was “more potently than Myx B and 7-desmethyl-Myx B”. Further, in data set [6], the “inhibition of Staphylococcus aureus compared with Myx B and 7-desmethyl-Myx B” value was “more potently than Myx B and 7-desmethyl-Myx B”. In the data set on Staphylococcus aureus (setting [10]), this molecule came in with a 12-hour survival of 100%. The “effect on survival in a mouse model” value in the data set with Staphylococcus aureus is given as “increase survival”. Besides, the “acute toxicity upon intravenous injection” value in data set [7] is recorded as “tolerated without acute toxicity”.

Take `CCCCC/C(C)=C/C=C(\C)C(=O)c1c(O)cc(C(C)CC/C=C/NC(=O)OC)oc1=O` (stereo not shown) [compound 8, Methyl ((E)-5-(3-((2E,4E)-2,5-dimethyldeca-2,4-dienoyl)-4-hydroxy-2-oxo-2H-pyran-6-yl)hex-1-en-1-yl)carbamate]: the IC50 was found to be 4 nM in data set [1], 19 nM in data set [2] (setting [9]) and 9.2 nM on S. aureus RNA polymerase (read-out: IC50 S. aureus RNAP). Besides, the MIC in data set [6] was determined as 0.5 µg/mL (≈ 1.12 µM). Moreover, the “inhibition of Staphylococcus aureus compared with Myx B and 7-desmethyl-Myx B” value in [6] was “more potently than Myx B and 7-desmethyl-Myx B”. In the data set with Staphylococcus aureus (setting [10]), this molecule showed a 12-hour survival of 75%. The “effect on survival in a mouse model” value in the data set with Staphylococcus aureus is on record as “increase survival”. Moreover, the “acute toxicity upon intravenous injection” value in data set [7] is reported as “tolerated without acute toxicity”.

By IC50 is commonly meant the concentration that inhibits the measured activity by half. Broadly, the MIC is the least concentration at which growth counts as inhibited.
